Several values for one entry are separate records, joined by “and”; a condition that tells them apart may be missing. Equal values may be shown once.
What was measured:
[1] = system: murine femoral artery wire injury model (neointimal hyperplasia); assay: Femoral artery wire injury model, morphometry of neointimal formation; type: in vivo, mouse; set-up: Lumen / Media / Intima / TVA (total vessel area): unit not given here; conditions: for decrease of neointimal formation compared to vehicle: absence of leptin; for I/M (intima:media ratio) / Intima / Lumen / Media / TVA (total vessel area): mean ± SD
Excerpt: Animal Models and Drug Treatments. Wild type C57BL/6J background mice and mice deficient for leptin (C57BL/6J-Lepob; ob/ob) or the leptin receptor (C57BL/6J-m+/+Lepdb; db/db) were purchased from Charles Jackson Laboratories, Maine. Mice were obtained at ages 6-8 weeks old and average weight 15 g. Animals were fed standard rodent chow and tap water ad libitum. Procedures and animal care were approved by the Institutional Animal Care and Use Committee. Mice were subjected to femoral artery wire injury or sham injury described below 24 hr prior to starting pharmacological treatments. Sirolimus was administered by intraperitoneal injection once per day for 14 days as a suspension in 0.2% sodium carboxymethyl cellulose and 0.25% polysorbate-80; duplicate experiments were accomplished with 0.5% DMSO. Leptin or LY294002 was administered by intraperitoneal injection once per day for 14 days as a suspension in PBS. Plasma leptin levels were measured at baseline, 3, 6, and 10 hr after leptin injection using an ELISA assay (R&D). Leptin plus the vehicle used for both sirolimus and LY294002 was used as the control group for the treatment groups with sirolimus and LY294002. After the 2-week treatment, animals were processed for femoral artery morphometry.
Femoral Artery Injury Model. Endoluminal injury of bilateral femoral arteries was performed according to the method of Roque et al. with minor modification 27. […] Briefly, to denude and dilate femoral arteries, a 0.014″ angioplasty guidewire (Guidant) was passed endoluminally 3 times to the level of the aortic bifurcation. A sham protocol was performed where the arteries underwent dissection, clamping, and ligature without passage of the guidewire.
Computer-aided quantitative morphometry to measure luminal, medial, intimal, and vessel areas were performed as previously described 27 with minor modification. Mice were euthanized via CO2 asphyxiation prior to en bloc excision of hind limbs. Briefly, multiple segments of the common femoral artery at the level of injury were fixed in 10% Zinc Formalin, embedded in paraffin, sectioned at […] thickness, and subjected to Elastic-Van Gieson staining at a Columbia University Core Histology facility. In many cases, arteries underwent immunohistochemical staining for smooth muscle a-actin to highlight the media and neointima. Photomicrographs were captured on Adobe Photoshop 7.0 and transferred to Scion Image software for quantitative analysis. Specimens were analyzed by two independent operators blinded to the treatment groups. Microsoft Excel software was used to calculate the RNI values from I/M ratios in the absence and presence of pharmacological inhibitors, as detailed in the text.
Surgical Procedures: The mouse femoral artery wire injury model of was used with minor modifications (Roque M, et al., Arterioscler Thromb Vasc Biol, 2000, 20(2):335-42). Briefly, forty-two male mice were studied. Endoluminal injury to the common femoral artery was produced by either 3 passages of a 0.014″ diameter angioplasty guidewire (Guidant, Santa Clara, Calif.). […] While being viewed under a surgical microscope, a groin incision was made and the femoral artery was isolated and temporarily clamped distal to the inguinal ligament. An arteriotomy was performed and the guidewire was passed 3 times to the level of the aortic bifurcation. The artery was then ligated proximal to the arteriotomy. A sham protocol was carried out on the contralateral side where the arteries underwent dissection, temporary clamping, and ligature, without passage of the wire. The formation of the neointima was confirmed in this model as being comprised mainly of VSMCs through immunohistochemical staining of representative sections for α-smooth muscle actin via a commercial kit (Sigma).
For all treatment protocols, rapamycin was administered by intraperitoneal injection once per day, for 14 days, as a suspension in 0.2% sodium carboxymethyl cellulose and 0.25% polysorbate-80. […]

Akt phosphorylation = assay: Immunoblot of Akt phosphorylation in VSMC; type: cell-based, mouse; conditions: Example 2; rapamycin; leptin 100 ng/ml
Experimental: (§1) Western blot analysis: The cells were plated in a 100-mm culture dish in DMEM supplemented with 20% FBS for 24 h at 37° C., followed by serum starvation for 48 h. Cells were then treated with different reagents for 30 min. Cells were subsequently lysed on ice for 30 min in RIPA buffer [150 mM NaCl, 100 mM Tris (pH 8.0), 1% Triton X-100, 1% deoxycholic acid, 0.1% SDS, 5 mM EDTA, and 10 mM NaF] supplemented with 1 mM sodium vanadate, 2 mM leupeptin, 2 mM aprotinin, 1 mM phenylmethylsulfonyl fluoride (PMSF), 1 mM DTT, and 2 mM pepstatin A. After centrifugation at 14,000 rpm for 30 min, the supernatant was harvested as the total cellular protein extract, and stored at −70° C. The protein concentration was determined using Bio-Rad protein assay reagent (Richmond, Calif.). The total cellular protein extracts were separated by SDS-polyacrylamide gel electrophoresis (SDS-PAGE) and transferred to nitrocellulose membrane in 20 mM Tris-HCl (pH 8.0) containing 150 mM glycine and 20% (v/v) methanol.
(§2) Membranes were blocked with 5% nonfat dried milk in PBS containing 0.05% Tween 20 and incubated with antibodies against phospho-(Thr^202/Tyr^204) p42/p44^MAPK and p42/p44^MAPK, phospho-Akt([…]) and anti-Akt, p70^S6K, 4EBP-1. Blots were washed three times in PBS buffer, followed by incubation with the appropriate HRP-linked IgG. The specific proteins in the blots were visualized using an enhanced chemiluminescence reagent (NEN, Boston, Mass.).
(§3) VSMC were plated on 100-mm dishes, serum starved for 72 h in DMEM containing 0.1% FBS, and stimulated with 0.6 or 6 nM (10 or 100 ng/ml) leptin. Extracts were prepared by brief sonication in HKM buffer [40 mM HEPES-KOH (pH 7.6), 7.5 mM MgCl2, 0.5 mM DTT] or, in the case of Akt phosphorylation studies, by lysing cells on ice for 30 min in RIPA buffer. 70 μg of protein per sample were subjected to immunoblotting by standards protocols. Imaging and densitometry were performed on an Odyssey infrared system (Li-Cor, Lincoln, Neb.).

[2] = system: MAPK (p44/p42, ERK1/2) phosphorylation; assay: Immunoblot of MAPK (ERK1/2, p44/p42) phosphorylation in VSMC; type: cell-based, mouse; conditions: Example 2; rapamycin; leptin 100 ng/ml
Experimental: as §1, §2, §3

[3] = system: primary murine aortic vascular smooth muscle cells (VSMC); assay: VSMC proliferation assay (Coulter counter / MTS-based); type: cell-based, mouse; conditions: insulin 10 or 100 nmol/L; 72 hours
Experimental: The methods used in the above experiments were as follows: Cell Culture and VSMC Proliferation Assays. Primary VSMC were isolated from aortic explants of wildtype, ob/ob, or db/db mice in the method of Roque et al. 30. VSMC were routinely cultured in Dulbecco's Modified Eagle's Medium (DMEM) containing either 4500 or 1250 mg/L glucose supplemented with 20% FBS at 37° C. in a 5% CO2 incubator. […] Cells were plated at 200,000 cells/ well of a 6 well dish and subsequently serum starved for 72 hr in DMEM media supplemented with 0.1 % FBS. Leptin dissolved in PBS was added directly to serum-free media at concentrations of 1, 10, or 100 ng/ml with […] LY294002 or U0126, and cells were grown for another 72 hr before harvesting. VSMC proliferation was measured by counting samples using a Coulter counter or using the Cell Titre 96 Aqueous One Solution Cell Proliferation Assay kit (Promega). Cell viability was assessed by Trypan Blue staining.
Proliferation of VSMCs: VSMC proliferation was measured by counting triplicate samples using a Coulter counter or using the CellTitier 96 Aqueous One Solution Cell Proliferation Assay (Promega, Madison, Wis.) kit per manufacturer's instructions. Cell viability was assessed via staining with Trypan Blue.
Murine VSMCs (2×10^4 cells/well) were incubated in a 6-well tissue culture plate for 72 hours in DMEM containing 0.1% FBS with or without insulin (10 or 100 nmol/L) and with 0, 1, 10, or 100 nmol/L rapamycin. Triplicate samples were counted using a Coulter counter and were normalized as percentage of the control group. Cell viability was checked via Trypan blue staining.
Murine VSMCs, seeded 2×10^4 cells/well in a 6-well plate, were starved for 72 hrs in DMEM with 0.1% FBS. Rapamycin, leptin, or insulin in different concentrations indicated in the figure were incubated with VSMCs in DMEM with 0.1% of FBS for 72 hrs. Triplicate samples were counted via a Coulter counter. Cell viability was checked via Trypan blue staining. […] In panel C, VSMCs were exposed to U0126, a specific MEK1/2 inhibitor, or LY294002, a specific PI3K inhibitor.
Primary VSMC were isolated from aortic explants of WT, ob/ob, or db/db mice (46). VSMC proliferation was determined using the Cell Titre Aqueous One Solution Proliferation Assay (Promega, Madison, Wis.). Migration to PDGF-BB was assessed in a modified Boyden chamber assay (47).

[4] = system: wire-injured femoral artery of hyperglycemic (STZ) mice; assay: Femoral artery wire injury in streptozotocin-induced hyperglycemic mice; type: in vivo, mouse
Experimental: For the studies carried out in hyperglycemic mice, animals received an intraperitoneal injection of 60 mg/kg/d for 5 days of streptozotocin (STZ) in 0.05 mol/L citrate buffer. Surgery was performed 3 days following the final injection. Blood glucose levels were measured prior to injury (representing baseline levels), at time of injury, at euthanasia, and as needed during insulin administration with the OneTouch SureStep® Blood glucose monitoring system (Lifescan, Inc., Milipitas, Calif.). Only animals with blood glucose concentrations >300 mg/dL were included in this study.
Insulin (12-26 U/kg) was administered via an intraperitoneal route twice per day, for 14 days, according to blood glucose measurements.
Morphometry: Mice were euthanized via CO2 asphyxiation and were perfused with 10% Zinc Formalin through the left ventricle at physiological pressure (100 mm Hg). Tissues were excised and fixed overnight in 10% Zinc Formalin, embedded in paraffin, and sectioned at 5 μm thickness. Multiple level sections were cut at 100 pm intervals. For morphometry, tissues were stained with elastic van Gieson stain. Using computer aided morphometry (Scion Image), luminal, medial, intimal, and vessel area, and the lengths of the internal and external elastic laminae were measured as previously described (Roque M, et al., Arterioscler Thromb Vasc Biol, 2000, 20(2):335-42) in a blinded manner. […]

[5] = wire injury + leptin 0.4 mg/kg, SRL 1 mg/kg/d i.p. 14 days
[6] = wire injury + leptin 0.4 mg/kg, SRL 4 mg/kg/d i.p. 14 days
[7] = wire injury + leptin 0.4 mg/kg, SRL 9 mg/kg/d i.p. 14 days
[8] = wire injury, SRL 1 mg/kg/d i.p. 14 days, no leptin
[9] = wire injury, SRL 4 mg/kg/d i.p. 14 days, no leptin
[10] = wire injury, SRL 9 mg/kg/d i.p. 14 days, no leptin

## CO[C@H]1C[C@@H]2CC[C@@H](C)[C@@](O)(O2)C(=O)C(=O)N2CCCC[C@H]2C(=O)O[C@H]([C@H](C)C[C@@H]2CC[C@@H](O)[C@H](OC)C2)CC(=O)[C@H](C)/C=C(\C)[C@@H](O)[C@@H](OC)C(=O)[C@H](C)C[C@H](C)/C=C/C=C/C=C/1C [sirolimus, rapamycin]
[1]; sirolimus 1 mg/kg/d
  decrease of neointimal formation compared to vehicle: ~2 fold
[1]; sirolimus 1 mg/kg/d, in the presence of leptin 0.4 mg/kg
  relative neointimal inhibition (RNI): 0.35
[1]; sirolimus 1 mg/kg/d, without leptin, RNI 1 = total inhibition
  relative neointimal inhibition (RNI): 0.51
[1]; sirolimus 4 mg/kg/d
  decrease of neointimal formation compared to vehicle: ~5 fold
[1]; sirolimus 4 mg/kg/d, in the presence of leptin 0.4 mg/kg
  relative neointimal inhibition (RNI): 0.67
[1]; sirolimus 4 mg/kg/d, without leptin
  relative neointimal inhibition (RNI): 0.81
[1]; sirolimus 9 mg/kg/d
  decrease of neointimal formation compared to vehicle: ~5 fold and ~6 fold
[1]; sirolimus 9 mg/kg/d, in the presence of leptin 0.4 mg/kg
  relative neointimal inhibition (RNI): 0.97
[1]; sirolimus 9 mg/kg/d, without leptin
  relative neointimal inhibition (RNI): 0.85
[1]; [5]
  I/M (intima:media ratio): 1.269 ± 0.254
  Intima: 0.024 ± 0.005
  Lumen: 0.010 ± 0.002
  Media: 0.019 ± 0.001
  TVA (total vessel area): 0.056 ± 0.007
[1]; [6]
  I/M (intima:media ratio): 0.654 ± 0.172
  Intima: 0.009 ± 0.001
  Lumen: 0.012 ± 0.004
  Media: 0.015 ± 0.002
  TVA (total vessel area): 0.035 ± 0.006
[1]; [7]
  I/M (intima:media ratio): 0.061 ± 0.015
  Intima: 0.001 ± 0.000
  Lumen: 0.014 ± 0.002
  Media: 0.017 ± 0.003
  TVA (total vessel area): 0.031 ± 0.004
[1]; [8]
  I/M (intima:media ratio): 0.334 ± 0.043
  Intima: 0.005 ± 0.001
  Lumen: 0.012 ± .003
  Media: 0.014 ± 0.001
  TVA (total vessel area): 0.029 ± 0.003
[1]; [9]
  I/M (intima:media ratio): 0.121 ± 0.027
  Intima: 0.001 ± 0.000
  Lumen: 0.012 ± 0.005
  Media: 0.015 ± 0.003
  TVA (total vessel area): 0.028 ± 0.006
[1]; [10]
  I/M (intima:media ratio): 0.094 ± 0.037
  Intima: 0.001 ± 0.000
  Lumen: 0.015 ± 0.002
  Media: 0.015 ± 0.002
  TVA (total vessel area): 0.030 ± 0.004
Akt phosphorylation
  inhibition of leptin-stimulated phosphorylation of Akt: did not inhibit
[2]
  inhibition of leptin-stimulated phosphorylation of ERK1/2: did not inhibit

## Insulin: insulin purchased from Calbiochem
[3]
  VSMC proliferation: induced a dose dependent increase in cell proliferation
[4]; STZ mice, insulin 12-26 U/kg twice per day
  blood glucose levels: reduce blood glucose levels to normal levels
[4]; STZ+INS, insulin 12-26 U/kg i.p. twice per day 14 days, p<0.01
  intima:media ratio: significant increase

Reference: US20090274739A1, “METHODS AND COMPOSITIONS FOR TREATING NEOINTIMAL HYPERPLASIA” (THE TRUSTEES OF COLUMBIA UNIVERSITY IN THE CITY OF NEW YORK, priority 2006, published 2009)
